Like-named read-outs stand apart in the source and are kept apart here.
Test system: MCF-7 cells
Assay: In vitro test of cell activity (MCF-7 cells, insulin stimulation, ELISA-One fluorescence)
Format: cell-based
Conditions: Homo sapiens, MCF7, MCF-7 cells; for inhibition at 0.5 µM: conc. 0.5 μM; for inhibition at 0.25 µM: conc. 0.25 μM
Description: Example In Vitro Tests of Cell Activities Experimental Steps and Methods:
1) MCF-7 cells were inoculated at the density of 2.5×10^4 cells/well into 96-well plates (the culture medium used should be a complete culture medium containing 10% FBS).
2) On the next day, the medium in each well was drawn out. A certain concentration (preliminary screening) or a series of concentration (IC50 test) of compounds were dissolved in a culture medium without serum and added to the 96-well plates to culture cells for 2 hours.
3) Insulin was dissolved in a culture medium without serum, added to the cultured cells and incubated for 30 minutes, wherein the final concentration of insulin was […].
4) A lysis solution was prepared according to the following method during the waiting period for the reaction:
a) Enhancer solution was removed from the refrigerator to melt in advance.
b) Enhancer solution was diluted 10 times with the 5× Lysis Buffer to give a concentrated lysis solution.
c) The concentrated lysis solution was diluted 5 times with double distilled water to give the lysis solution.
5) The medium in each well was completely removed and each well was quickly rinsed with PBS once.
6) 150 μl of the freshly prepared lysis solution was added to each well and shaked at room temperature for 10 minutes.
7) After confirming that all cells were detached, the lysis solution together with the cell fragments was transferred into a 1.5 ml tube.
8) The tube was shaked on vortes mixer to make the lysis solution and cells mix completely and then the mixture was centrifugated at 4° C. under 12000 g for 10 minutes.
9) The number of strips of ELISA-one micro-well plate that is required was calculated. The needless strips were removed from the frame, put back into the storage bag and sealed. Before the strips of micro-well plate were used, 200 μl of double distilled water was used to rinse each well to remove preservative.
10) 50 μl of antibody mixture was added to each well. (The antibody mixture solution was prepared by mixing the medium antibody reagent and the enzyme labeled antibody reagent with an equal proportion. The preparation of antibody mixture didn't need vortex.)
11) 25 μl of cell lysates was added to each well of ELISA-One micro-well plate. The micro-well plate was covered with adhesive sealing film and incubated on a micro-well plate oscillation instrument at room temperature for 1 hour.
12) Each well was rinsed with 150 μl of 1× rinsing buffer 3 times. After the last rinsing, the rinsing buffer in the well was completely removed. If necessary, the 1× rinsing buffer could be allowed to stay in the micro-well plate for up to 30 minutes so that the substrate mixed solution could be prepared during such time period.
13) The substrate mixed solution should be prepared just before each use, 10 μl of the substrate mixed solution was added to each well and the micro-well plate was sealed with tin-foil and incubated on the micro-well plate oscillation instrument at room temperature for 10 minutes.
14) 10 μl of stop solution was added to each well and mixed slightly (5-10 seconds) on the micro-well plate oscillation instrument.
15) The corresponding ELISA-One filter group was assembled and used to read the fluorescence signal intensity.

COc1ncc(-c2cn3c(=O)ccnc3cc2C)cc1NS(=O)(=O)c1ccccc1F [compound 123]
inhibition at 0.5 µM (read-out: % inhibition AKT): -82.1% | inhibition at 0.5 µM (read-out: % inhibition p70s6k): 6.7%

COc1ncc(-c2cn3c(=O)ccnc3cc2C)cc1NS(=O)(=O)c1cccc(F)c1 [compound 124]
inhibition at 0.5 µM (read-out: % inhibition AKT): -48% | inhibition at 0.5 µM (read-out: % inhibition p70s6k): 2.8%

COc1ncc(-c2cn3c(=O)ccnc3cc2C)cc1NS(=O)(=O)c1c(F)cccc1F [compound 125]
inhibition at 0.5 µM (read-out: % inhibition AKT): 23.5% | inhibition at 0.5 µM (read-out: % inhibition p70s6k): 5%

COc1ncc(-c2cn3c(=O)ccnc3cc2C)cc1NS(=O)(=O)c1ccc(F)cc1C [compound 126]
inhibition at 0.5 µM (read-out: % inhibition AKT): -12.7% | inhibition at 0.5 µM (read-out: % inhibition p70s6k): 2.4%

COc1ncc(-c2cn3c(=O)ccnc3cc2C)cc1NS(=O)(=O)c1ccc(F)cc1Cl [compound 128]
inhibition at 0.5 µM (read-out: % inhibition AKT): -1.1% | inhibition at 0.5 µM (read-out: % inhibition p70s6k): 0.4%

COc1ncc(-c2cn3c(=O)ccnc3cc2C)cc1NS(=O)(=O)c1ccc(C#N)cc1 [compound 129]
inhibition at 0.5 µM (read-out: % inhibition AKT): -24.2% | inhibition at 0.5 µM (read-out: % inhibition p70s6k): 1.2%

COc1ncc(-c2cn3c(=O)ccnc3cc2C)cc1NS(=O)(=O)c1ccc(C(F)(F)F)cc1 [compound 130]
inhibition at 0.5 µM (read-out: % inhibition AKT): 2.3% | inhibition at 0.5 µM (read-out: % inhibition p70s6k): 2.6%

COc1ncc(-c2cn3c(=O)ccnc3cc2C)cc1NS(=O)(=O)c1cc(F)ccc1F [compound 131]
inhibition at 0.5 µM (read-out: % inhibition AKT): -27% | inhibition at 0.5 µM (read-out: % inhibition p70s6k): 4.5%

COc1nnc(-c2ccc3ncc(Cl)c(=O)n3c2)cc1NS(=O)(=O)c1ccc(F)cc1F [compound 133]
IC50 (read-out: IC50 p-AKT): > 250 nM

COc1ncc(-c2ccc3ncc(Cl)c(=O)n3c2)cc1NS(=O)(=O)c1ccc(F)cc1C [compound 134]
inhibition at 0.5 µM (read-out: % inhibition AKT): 94.9% | inhibition at 0.5 µM (read-out: % inhibition p70s6k): 87.7% | IC50 (read-out: IC50 p-AKT): ≤ 50 nM | IC50 (read-out: IC50 p-p70S6K): 50 to 100 nM

COc1ncc(-c2ccc3ncc(Cl)c(=O)n3c2)cc1NS(=O)(=O)c1ccccc1Cl [compound 136]
inhibition at 0.5 µM (read-out: % inhibition AKT): 95.5% | inhibition at 0.5 µM (read-out: % inhibition p70s6k): 87.2% | IC50 (read-out: IC50 p-AKT): ≤ 50 nM | IC50 (read-out: IC50 p-p70S6K): 50 to 100 nM

COc1ncc(-c2ccc3ncc(Cl)c(=O)n3c2)cc1NS(=O)(=O)c1ccccc1F [compound 137]
inhibition at 0.5 µM (read-out: % inhibition AKT): 93.3% | inhibition at 0.5 µM (read-out: % inhibition p70s6k): 87.1% | IC50 (read-out: IC50 p-AKT): ≤ 50 nM | IC50 (read-out: IC50 p-p70S6K): 100 to 250 nM

COc1ncc(-c2ccc3ncc(Cl)c(=O)n3c2)cc1NS(=O)(=O)c1cccc(F)c1 [compound 138]
inhibition at 0.5 µM (read-out: % inhibition AKT): 68.9% | inhibition at 0.5 µM (read-out: % inhibition p70s6k): 73.8%

COc1ncc(-c2ccc3ncc(Cl)c(=O)n3c2)cc1NS(=O)(=O)c1cc(F)ccc1F [compound 139]
inhibition at 0.5 µM (read-out: % inhibition AKT): 93.7% | inhibition at 0.5 µM (read-out: % inhibition p70s6k): 88.5% | IC50 (read-out: IC50 p-AKT): ≤ 50 nM | IC50 (read-out: IC50 p-p70S6K): 50 to 100 nM

COc1ncc(-c2ccc3ncc(Cl)c(=O)n3c2)cc1NS(=O)(=O)c1cccc(C)c1 [compound 140]
inhibition at 0.5 µM (read-out: % inhibition AKT): 94.8% | inhibition at 0.5 µM (read-out: % inhibition p70s6k): 90.5% | IC50 (read-out: IC50 p-AKT): ≤ 50 nM | IC50 (read-out: IC50 p-p70S6K): 50 to 100 nM

COc1ncc(-c2ccc3ncc(Cl)c(=O)n3c2)cc1NS(=O)(=O)c1cccc(Cl)c1 [compound 141]
inhibition at 0.5 µM (read-out: % inhibition AKT): 96.1% | inhibition at 0.5 µM (read-out: % inhibition p70s6k): 88.1% | IC50 (read-out: IC50 p-AKT): ≤ 50 nM | IC50 (read-out: IC50 p-p70S6K): ≤ 50 nM

COc1ncc(-c2ccc3ncc(Cl)c(=O)n3c2)cc1NS(=O)(=O)c1ccccc1 [compound 142]
inhibition at 0.5 µM (read-out: % inhibition AKT): 94.8% | inhibition at 0.5 µM (read-out: % inhibition p70s6k): 90.8% | IC50 (read-out: IC50 p-AKT): ≤ 50 nM | IC50 (read-out: IC50 p-p70S6K): 50 to 100 nM

COc1ncc(-c2ccc3ncc(Cl)c(=O)n3c2)cc1NS(=O)(=O)c1sccc1C [compound 143]
inhibition at 0.5 µM (read-out: % inhibition AKT): 95.7% | inhibition at 0.5 µM (read-out: % inhibition p70s6k): 87.7% | IC50 (read-out: IC50 p-AKT): ≤ 50 nM | IC50 (read-out: IC50 p-p70S6K): ≤ 50 nM

COc1ncc(-c2ccc3ncc(Cl)c(=O)n3c2)cc1NS(=O)(=O)c1ccc(F)c(F)c1 [compound 145]
inhibition at 0.5 µM (read-out: % inhibition AKT): 94.9% | inhibition at 0.5 µM (read-out: % inhibition p70s6k): 90.5% | IC50 (read-out: IC50 p-AKT): ≤ 50 nM | IC50 (read-out: IC50 p-p70S6K): 100 to 250 nM

COc1ncc(-c2ccc3ncc(Cl)c(=O)n3c2)cc1NS(=O)(=O)c1ccc(F)cc1 [compound 146]
inhibition at 0.25 µM (read-out: % inhibition AKT): 77.6% | inhibition at 0.25 µM (read-out: % inhibition p70s6k): 83.7%

COc1ncc(-c2ccc3ncc(Cl)c(=O)n3c2)cc1NS(=O)(=O)c1cc(F)cc(F)c1 [compound 147]
inhibition at 0.25 µM (read-out: % inhibition AKT): 80.3% | inhibition at 0.25 µM (read-out: % inhibition p70s6k): 81.3% | IC50 (read-out: IC50 p-AKT): 50 to 100 nM | IC50 (read-out: IC50 p-p70S6K): 50 to 100 nM

From patent US9868737B2, “Pyridino[1,2-A]pyrimidone analogue used as MTOR/P13K inhibitor” (CISEN PHARMACEUTICAL CO., LTD., priority 2014, dated 2018)
